{
  "source": "patent US9622997B2",
  "about": "“Methods for treating insomnia” (Lynn Health Science Institute, Inc., priority 2012, dated 2017)",
  "tested_on": "healthy subjects subjected to a transient insomnia protocol",
  "experiment": "Transient insomnia protocol (2 hour phase advance), double blind cross-over, overnight PSG and morning self-report",
  "type": "in vivo, human",
  "description": "Twenty-four (24) healthy subjects aged 18-65 years (inclusive) with no insomnia were recruited for this study. […] Individuals were also excluded if they had excessive daytime sleepiness indicated by an Epworth Sleepiness Score (ESS) of >9 or a chronic sleep disturbance indicated by a Pittsburgh Sleep Questionnaire Inventory (PSQI) score of >5. Shift workers or subjects with irregular sleep schedules were excluded. Women of child-bearing potential who used medically acceptable methods of contraception were allowed to participate. Subjects were excluded if they had any of the following: BMI≧30; symptoms of gastroesophageal reflux such as heartburn on a regular basis; history of allergic reaction or hyper-sensitivity to benzodiazepines or CNS depressants; or evidence of any clinically significant medical abnormality or chronic disease indicated on laboratory screen or physical exam. Subjects were also excluded if they had any of the following: a history of alcohol or drug abuse; consume >2 alcoholic beverages on a single day and >14 beverages weekly; or >5 cigarettes a day and could not forego smoking for up to 14 hours while in the sleep lab. Participants abstained from over-the-counter medications within 7 days of the polysomnographic (hereinafter “PSG”) evaluation (except accepted birth control medication, NSAIDS/acetaminophen for infrequent pain not considered clinically significant). Participants abstained from alcohol for 24 hours and caffeine for 6 hours prior to each PSG evaluation. Eligible participants were required to report normal sleep patterns during the week before each PSG defined as a bedtime between 21:00 and 24:00 on at least 5 of 7 consecutive nights, with reported sleep duration between 7-9 hours, and no more than 2 naps a week.\nThe present study was a single-site study approved by Aspire Institutional Review Board. The study design was a double blind cross-over study. Subjects gave written informed consent prior to any study-related procedures. The study consisted of a screening session and two overnight PSGs. The treatments consisted of baclofen 20 mg and placebo. The screening session consisted of a medical screening visit to determine eligibility and safety for each subject. Eligible subjects were randomized into two treatment sequences based on a random permutation algorithm. One treatment sequence received baclofen 20 mg on the night of the first PSG, then placebo on the night of the second PSG. The other treatment sequence received placebo on the night of the first PSG, then baclofen 20 mg on the night of the second PSG. Subjects were given a 7 day sleep diary to complete immediately prior to the first sleep study. Subjects were given a second 7 day sleep diary to complete immediately prior to the second sleep study. Lights out was determined as two hours earlier than the subject's median habitual bedtime indicated in the diary prior to each PSG. Study drug (baclofen 20 mg or placebo) was administered 90 minutes prior to lights out.\nOn the PSG nights, respiratory effort and airflow, oxygen saturation, leg and chin EMGs were recorded in addition to the routine PSG measures to exclude subjects with sleep-related breathing disorders and periodic limb movement disorder. […] PSG measures consisted of the following: wake after sleep onset (WASO), total sleep time (TST), sleep onset latency (SOL), sleep efficiency (SE), percent sleep stage 1, percent sleep stage 2, percent sleep stages 3 and 4 combined, percent sleep REM. Self-report measures consisted of the following: subjective TST (sTST), subjective SOL (sSOL), subjective number of awakenings from sleep (sNAS), subjective sleep quality (sSQ). All PSGs were analyzed by one of the authors blinded to the treatment groups. […]",
  "key": {"[1]": {"conditions": "PSG measure, percentage of TST, baclofen 20 mg"}, "[2]": {"conditions": "PSG measure, baclofen 20 mg 90 minutes prior to lights out, n=20"}, "[3]": {"conditions": "baclofen 20 mg vs placebo, not significant"}, "[4]": {"conditions": "baclofen 20 mg vs placebo, p < 0.01"}, "[5]": {"conditions": "baclofen 20 mg vs placebo, p < 0.05"}, "[6]": {"conditions": "self-report, morning questionnaire, baclofen 20 mg"}},
  "note": "Marks after values point to notes of the source that are not given here.",
  "data": [
    {"smiles": "NCC(CC(=O)O)c1ccc(Cl)cc1", "note": "(stereo not drawn) [Baclofen, 4-amino-3-(4-chlorophenyl)-butanoic acid]", "values": [
      {"measurement": "REM", "setting": "[1]", "value": "24.1 ± 1.3", "unit": "%"},
      {"measurement": "Stage 1", "setting": "[1]", "value": "2.3 ± 0.3", "unit": "%"},
      {"measurement": "Stage 2", "setting": "[1]", "value": "58.9 ± 2.0", "unit": "%"},
      {"measurement": "Stage 3/4", "setting": "[1]", "value": "14.7 ± 1.4", "unit": "%"},
      {"measurement": "SE", "setting": "[2]", "value": "90.6 ± 1.2", "unit": "%"},
      {"measurement": "SOL", "setting": "[2]", "value": "19.4 ± 3.8", "unit": "min"},
      {"measurement": "TST", "setting": "[2]", "value": "435.4 ± 5.8", "unit": "min"},
      {"measurement": "WASO", "setting": "[2]", "value": "25.6 ± 4.0", "unit": "min"},
      {"measurement": "SOL Absolute Change", "setting": "[3]", "value": -0.4, "unit": "min"},
      {"measurement": "sSOL Absolute Change", "setting": "[3]", "value": -1.0, "unit": "min"},
      {"measurement": "sTST Absolute Change", "setting": "[3]", "value": 0.3, "unit": "h"},
      {"measurement": "REM Absolute Change", "setting": "baclofen 20 mg vs placebo, not significant (p=0.067)", "value": 3.5, "unit": "%"},
      {"measurement": "Stage 2 Absolute Change", "setting": "baclofen 20 mg vs placebo, not significant (p=0.092)", "value": "−3.9", "unit": "%"},
      {"measurement": "Stage 1 Absolute Change", "setting": "baclofen 20 mg vs placebo, p < 0.001", "value": "−1.8*** %"},
      {"measurement": "TST Absolute Change", "setting": "[4]", "value": "27.7** min"},
      {"measurement": "sNAS Absolute Change", "setting": "[4]", "value": "−1.3** #"},
      {"measurement": "Stage 3/4 Absolute Change", "setting": "[5]", "value": "2.7* %"},
      {"measurement": "WASO Absolute Change", "setting": "[5]", "value": "−28.4* min"},
      {"measurement": "sSQ Absolute Change", "setting": "[5]", "value": "−0.5* scale 1-4"},
      {"measurement": "baclofen data better than zolpidem (decrease in WASO, increase in SE)", "setting": "baclofen 20 mg vs zolpidem 10 mg (WASO 9.4 min, SE 3.7%), 2 hr phase advance", "value": "2-4 fold"},
      {"measurement": "sSOL", "setting": "[6]", "value": "25.0 ± 4.1", "unit": "min"},
      {"measurement": "sTST", "setting": "[6]", "value": "7.1 ± 0.2", "unit": "h"},
      {"measurement": "sNAS", "setting": "self-report, number of awakenings, baclofen 20 mg", "value": "2.4 ± 0.4"},
      {"measurement": "sSQ", "setting": "self-report, 1 = good, 2 = average, 3 = below average, 4 = poor, baclofen 20 mg", "value": "1.9 ± 0.2", "unit": "scale 1-4"},
      {"measurement": "TST", "setting": "↑ increase compared to placebo, 20 mg, 2 hour phase-advance, current study", "value": "↑ 27.7 min"},
      {"measurement": "SOL", "setting": "↓ decrease compared to placebo, NS, 20 mg, 2 hour phase-advance, current study", "value": "↓ 0.4^NS min"},
      {"measurement": "wake after sleep onset (WASO), change vs placebo", "setting": "↓ decrease compared to placebo, 20 mg, 2 hour phase-advance, current study", "value": "↓ 28.3 min"}
    ]}
  ]
}
